Test results as given in patent publication US8076375B2 (priority 2005, dated 2011).
Where “and” joins values, the source holds several entries; their conditions need not be identical. Equal entries are not always repeated. Entries after “also recorded” stand apart in the source; their conditions may differ. Where two headings read alike, the source gives them in different places.

What was measured:
[1] = tested on: ts2 and ts25 vaccinia virus mutants; assay type: cell-based
wild-type vaccinia virus = test: microbe, parasite or virus in culture; assay type: cell-based; settings: for inhibition at 100 µM: Orthopoxvirus vaccinia, HeLa
[2] = tested on: Lck (activated F505 form); assay type: biochemical; settings: for Effect on Lck activity (in words): 10 μM
[3] = biological target: vaccinia virus B1 kinase (GST-B1) (Vaccinia virus, UniProt P20505); test: biochemical; assay type: biochemical; settings: for remaining activity at 10 µM: read-out: Percent activity remaining at 10 μM, B1; for inhibition at 10 µM: read-out: Inhibition of GST-B1 (of the control value)
[4] = mouse, in vivo, cited from earlier work
[5] = tested on: vesicular stomatitis virus (VSV); assay type: cell-based

| Molecule | Effect on virus growth in HeLa cell culture (in words) (wild-type vaccinia virus) | Percent Lck activity remaining [2] [%] | Effect on Lck activity (in words) [2] | remaining activity at 10 µM [3] [%] | Effect on growth of wild-type vaccinia virus (in words) (wild-type vaccinia virus) | IC50 [3] [nM] | inhibition at 10 µM [3] [%] | Toxic effects in mammals [4] | also measured |
| --- | --- | --- | --- | --- | --- | --- | --- | --- | --- |
| 2-methylnaphthalene-bis(hexachlorocyclopentadiene) adduct [reference compound] | – | – | – | – | – | – | – | – | Effect on growth of ts2 and ts25 vaccinia virus, FIG. 1 (in words) [1]: did not inhibit; Effect on growth of ts2 or ts25 vaccinia virus (in words) [1]: no effect |
| O=S(=O)(O)c1ccc(NN(c2c(O)ccc3ccccc23)S(=O)(=O)O)cc1 [Compound 9600-Q, 4-[N′-(2-hydroxynaphthalen-1-yl)-N′-sulfo-hydrazino]benzenesulfonic acid] | no apparent effect | 53 ± 18 | minimally inhibited | 93 ± 2 | – | – | – | – | Effect on B1 kinase activity in vitro (in words) [3]: inhibiting B1 almost not at all |
| O=C(O)C=Cc1ccc[c]([Sb](=[O])([OH])[OH])c1 [Compound 13778-J, 3-(3-stibonophenyl)prop-2-enoic acid] | – | 79 ± 9 | – | – | inhibited the growth | – | – | – | Effect on B1 kinase activity in vitro (in words) [3]: inhibiting B1 almost not at all; also recorded: stimulated B1 in vitro |
| Nc1nc(N)c(/N=N/c2ccc(C(=O)O)c(O)c2)c(N)n1 [Compound 117285-R, 2-hydroxy-4-(2,4,6-triaminopyrimidin-5-yl)diazenyl-benzoic acid] | no apparent effect | 76 ± 25 | – | 4 ± 2 | – | 1000 | ≥ 87 | – | – |
| O=C(O)C1CCCCC1c1c2ccc(=O)c(O)c-2oc2c(O)c(O)ccc12 (stereo not drawn) [Compound 119910-U, 2-(4,5,6-trihydroxy-3-oxo-xanthen-9-yl)cyclohexane-1-carboxylic acid] | no apparent effect | 59 | minimally inhibited | 0 | – | 3500 | ≥ 87 | no toxic effects were observed | – |
| O=C(O)C=Cc1c2ccc(=O)c(O)c-2oc2c(O)c(O)ccc12 [Compound 119911-V, 3-(4,5,6-trihydroxy-3-oxo-xanthen-9-yl)prop-2-enoic acid] | no apparent effect | 70 | – | 0 | – | 3000 | ≥ 87 | no toxic effects were observed | – |
| CC1C2C=CC1C(c1c3ccc(=O)c(O)c-3oc3c(O)c(O)ccc13)C2C(=O)O (stereo not drawn) [Compound 119913-X, 7-methyl-6-(4,5,6,-trihydroxy-3-oxo-xanthen-9-yl)-bicyclo[2.2.1]hetp-2-ene-5-carboxylic acid] | – | 56 | minimally inhibited | 1 | inhibited the growth | 2500 | ≥ 87 | no toxic effects were observed | Effect on growth of ts2 and ts25 mutant viruses (in words) [1]: reproducibly inhibited the growth |
| O=C(O)CCc1c2ccc(=O)c(O)c-2oc2c(O)c(O)ccc12 [Compound 119915-Z, 3-(4,5,6-trihydroxy-3-oxo-xanthen-9-yl)propanoic acid] | no apparent effect | 78 | – | 1 | – | 3000 | ≥ 87 | no toxic effects were observed | – |
| O=C(O)c1cccc(/N=N/c2c(S(=O)(=O)O)ccc3c2C(=O)c2ccccc2C3=O)c1O [Compound 125908-P, 3-(9,10-dioxo-2-sulfo-anthracen-1-yl)diazenyl-2-hydroxy-benzoic acid] | no apparent effect | 53 | minimally inhibited | 23 | – | – | – | – | – |
| O=C1c2ccccc2C(=O)c2c(NC3CCCCC3)ccc(Nc3ccc(S(=O)(=O)O)cc3)c21 [Compound 128437-O, 4-(4-cyclohexylamino-9,10-dioxo-anthracen-1-yl)aminobenzenesulfonic acid] | – | 88 | – | 47 | inhibited the growth | – | – | – | – |
| CCc1c(O)c2c(c(O)c1C(C)=O)C(=O)c1c(cc(O)c(C(=O)O)c1C(=O)O)C2=O [Compound 170008-Y, 2-acetyl-7,8-bis(dihydroxymethylidene)-3-ethyl-9-hydroxy-anthracene-1,4,6,10-tetrone] | no apparent effect | 81 | – | 12 | – | 2500 | ≥ 87 | – | – |
| O=C(O)c1cc2c(cc1S(=O)(=O)O)C1C(C3C2C2(Cl)C(Cl)=C(Cl)C3(Cl)C2(Cl)Cl)C2(Cl)C(Cl)=C(Cl)C1(Cl)C2(Cl)Cl (stereo not drawn) [Compound 270718-R, 3-sulfo-2-naphthoic acid-bis(hexachlorocyclopentadiene) adduct] | – | 86 ± 46 | – | 12 ± 14 | inhibited the growth | 2500 | ≥ 87 | no toxic effects were observed | Effect on growth of VSV (in words) [5]: essentially no effect; Effect on growth of VSV, FIG. 1 (in words) [5]: not the growth of VSV; Inhibition of growth of VSV (in words) [5]: slight; Activity under reduced-serum conditions relative to 10% serum (wild-type vaccinia virus): approximately four-fold; Effect on growth of wild-type vaccinia virus, FIG. 1 (in words) (wild-type vaccinia virus): inhibited the growth; Inhibition of growth of wild-type vaccinia virus (wild-type vaccinia virus): 90% and 99%; inhibition at 100 µM (wild-type vaccinia virus; read-out: Inhibition of growth of wild-type vaccinia virus, example of FIG. 1): 93%; inhibition at 100 µM (wild-type vaccinia virus; read-out: Inhibition of wild-type vaccinia virus): 84%; Toxicity in mice ([4]; 200 mg/kg): No toxicity; Effect on growth of ts2 and ts25 mutant viruses (in words) [1]: reproducibly inhibited the growth; Effect on growth of ts2 and ts25 vaccinia virus, FIG. 1 (in words) [1]: inhibited the growth; Inhibition of growth of ts2 and ts25, single experiment (FIG. 1) ([1]; 100 µM): 99%; Inhibition of growth of vaccinia virus over 24 hours ([1]; 100 µM): 86-99%; Effect on growth of human Ramos B cells (human Ramos B cells): no effect |
| CN[C@@H]1C[C@H]2O[C@@](C)([C@@H]1OC)n1c3ccccc3c3c4c(c5c6ccccc6n2c5c31)C(=O)NC4 [staurosporine, reference compound] | – | – | – | – | – | – | – | – | Effect on B1 kinase activity in vitro (in words) [3]: inhibited B1 or F10 kinase |
